The text below walks through data of patent US8188101B2 (AstraZeneca AB, priority 2008, dated 2012).

This assay relates to Aβ42 release. The experiment in a line: Aβ release in cells stably expressing APPswe, Meso Scale Discovery electrochemiluminescence assay. The assay is classed as cell-based, Human. To be noted: Homo sapiens, SH-SY5Y, HEK or SH-SY5Y cells stably expressing APPswe, 4-6 hours incubation with test compound. As for the experimental part: The level of activity of the compounds on Aβ release was tested using the following method:
Compounds were diluted in 100% DMSO and stored at […] prior to use. Human Embryonic Kidney (HEK) or Human Neuroblastoma (SH-SY5Y) cell lines stably expressing APP with the Swedish mutation (APPswe) were cultured using Dulbecco's Modified Eagles medium (DMEM) supplied with […] glucose, Na-pyruvate and GlutaMAX with 10% FBS, 100 U/ml penicillin-streptomycin (PEST) respectively, 1× non-essential amino acids (NEAA), […] Hepes, 100 μg/ml Zeocine. Cells at about 80% confluence were washed with PBS, detached from culture flasks using 1× Trypsin/EDTA diluted in PBS, re-suspended in cell media and plated in 384-well poly-d-lysine coated cell culture plates at about 10000-15000 cells/well, in 25 μL cell media. Optionally, cryo-preserved cells (frozen and stored at −140° C. in 90% cell media and 10% DMSO) were thawed, washed and plated as above. Next the cells were incubated for 15-24 h at 37° C. and 5% CO2, after which cell medium was changed. Fresh medium containing test compound diluted ×200 from prepared compound plate was added to the cells before further incubation for 4-6 hours at 37° C. and 5% CO2. After incubation with test compound the amount of Aβ peptides, including Aβ42, Aβ40, Aβ39, Aβ38 and Aβ37, secreted to the cell medium was analyzed using the electrochemiluminescence assay technology from Meso Scale Discovery Technology, in combination with specific antibodies raised against the different Aβ peptides. Potential cytotoxic effects of the compounds were usually assayed by measuring the ATP content (ViaLight) from cell lysate.
In the case of `Cc1nccn1-c1ccc(Nc2nc3c(c(Cc4ccccc4F)n2)CN(C)CC3)cc1` [Example 52, 4-(2-Fluorobenzyl)-6-methyl-N-(4-(2-methyl-1H-imidazol-1-yl)phenyl)-5,6,7,8-tetrahydropyrido[4,3-d]pyrimidin-2-amine], the IC50 was 316 nM.
`COc1cccc(Cc2nc(Nc3ccc(-n4ccnc4C)cc3)nc3c2CN(C)CC3)c1` [Example 53, 4-(3-Methoxybenzyl)-6-methyl-N-(4-(2-methyl-1H-imidazol-1-yl)phenyl)-5,6,7,8-tetrahydropyrido[4,3-d]pyrimidin-2-amine]: the IC50 was 316 nM.
Consider `Cc1nccn1-c1ccc(Nc2nc(CCC3CCCCC3)c3c(n2)CCN(C)C3)cc1` [Example 54, 4-(2-Cyclohexylethyl)-6-methyl-N-(4-(2-methyl-1H-imidazol-1-yl)phenyl)-5,6,7,8-tetrahydropyrido[4,3-d]pyrimidin-2-amine], for which the IC50 is 316 nM.
Consider `Cc1nccn1-c1ccc(Nc2nc3c(c(CC4CCCC4)n2)CN(C)CC3)cc1` [Example 55, 4-(Cyclopentylmethyl)-6-methyl-N-(4-(2-methyl-1H-imidazol-1-yl)phenyl)-5,6,7,8-tetrahydropyrido[4,3-d]pyrimidin-2-amine], for which the 50% inhibitory concentration (IC50) was 316 nM.
As to `Cc1nccn1-c1ccc(Nc2nc3c(c(Cc4ccccc4F)n2)CN(CCO)CC3)cc1` [Example 56, 2-(4-(2-Fluorobenzyl)-2-(4-(2-methyl-1H-imidazol-1-yl)phenylamino)-7,8-dihydropyrido[4,3-d]pyrimidin-6(5H)-yl)ethanol], the IC50 was 398 nM.
For the compound `COc1cccc(Cc2nc(Nc3ccc(-n4ccnc4C)cc3)nc3c2CN(CCO)CC3)c1` [Example 57, 2-(4-(3-Methoxybenzyl)-2-(4-(2-methyl-1H-imidazol-1-yl)phenylamino)-7,8-dihydropyrido[4,3-d]pyrimidin-6(5H)-yl)ethanol], the IC50 was 398 nM.
For `CC(=O)N1CCc2nc(Nc3ccc(-n4ccnc4C)cc3)nc(CCC3CCCCC3)c2C1` [Example 58, 1-(4-(2-Cyclohexylethyl)-2-(4-(2-methyl-1H-imidazol-1-yl)phenylamino)-7,8-dihydropyrido[4,3-d]pyrimidin-6(5H)-yl)ethanone] the value was 200 nM; for `CC(=O)N1CCc2nc(Nc3ccc(-n4ccnc4C)cc3)nc(Cc3ccc(C)cc3)c2C1` [Example 59, 1-(2-(4-(2-Methyl-1H-imidazol-1-yl)phenylamino)-4-(4-methylbenzyl)-7,8-dihydropyrido[4,3-d]pyrimidin-6(5H)-yl)ethanone], 398 nM.
For the compound `CC(=O)N1CCc2nc(Nc3ccc(-n4ccnc4C)cc3)nc(CCc3cccc(F)c3)c2C1` [Example 60, 1-(4-(3-Fluorophenethyl)-2-(4-(2-methyl-1H-imidazol-1-yl)phenylamino)-7,8-dihydropyrido[4,3-d]pyrimidin-6(5H)-yl)ethanone], the IC50 is 501 nM.
The result for `Cc1nccn1-c1ccc(Nc2nc3c(c(CC4CCOCC4)n2)CN(C)CC3)cc1` [Example 61, 6-Methyl-N-(4-(2-methyl-1H-imidazol-1-yl)phenyl)-4-((tetrahydro-2H-pyran-4-yl)methyl)-5,6,7,8-tetrahydropyrido[4,3-d]pyrimidin-2-amine] reads 10000 nM; that for `Cc1nccn1-c1ccc(Nc2nc3c(c(CC4CCOCC4)n2)CN(CCO)CC3)cc1` [Example 62, 2-(2-(4-(2-Methyl-1H-imidazol-1-yl)phenylamino)-4-((tetrahydro-2H-pyran-4-yl)methyl)-7,8-dihydropyrido[4,3-d]pyrimidin-6(5H)-yl)ethanol], 10000 nM; that for `CC(=O)N1CCc2nc(Nc3ccc(-n4ccnc4C)cc3)nc(CC3CCOCC3)c2C1` [Example 63, 1-(2-(4-(2-Methyl-1H-imidazol-1-yl)phenylamino)-4-((tetrahydro-2H-pyran-4-yl)methyl)-7,8-dihydropyrido[4,3-d]pyrimidin-6(5H)-yl)ethanone], 50100 nM.
As for `Cc1nccn1-c1ccc(Nc2nc3c(c(Cc4ccc(F)cc4)n2)C[S+]([O-])CC3)cc1` (stereo not shown) [Example 64, 4-(4-Fluorobenzyl)-N-[4-(2-methyl-1H-imidazol-1-yl)phenyl]-7,8-dihydro-5H-thiopyrano[4,3-d]pyrimidin-2-amine 6-oxide], the IC50 was 1000 nM.
For `COC(c1ccccc1)c1nc(Nc2ccc(-n3ccnc3C)cc2)nc2c1COCC2` (stereo not shown) [Example 65, 4-(Methoxy(phenyl)methyl)-N-(4-(2-methyl-1H-imidazol-1-yl)phenyl)-7,8-dihydro-5H-pyrano[4,3-d]pyrimidin-2-amine] the value was 316 nM.
`COC(c1ccccc1)c1nc(Nc2ccc(-n3ccnc3C)cc2)nc2c1CS(=O)(=O)CC2` (stereo not shown) [Example 66, 4-[Methoxy(phenyl)methyl]-N-[4-(2-methyl-1H-imidazol-1-yl)phenyl]-7,8-dihydro-5H-thiopyrano[4,3-d]pyrimidin-2-amine 6,6-dioxide]: the IC50 was 1260 nM.
As to `Cc1nccn1-c1ccc(Nc2nc3c(c(CC4CCOCC4)n2)COCC3)cc1` [Example 67, N-(4-(2-Methyl-1H-imidazol-1-yl)phenyl)-4-((tetrahydro-2H-pyran-4-yl)methyl)-7,8-dihydro-5H-pyrano[4,3-d]pyrimidin-2-amine], the IC50 is 10000 nM.
Regarding `COc1cc(Nc2nc3c(c(Cc4ccccc4)n2)CN(C)CC3)ccc1-n1cnc(C)c1` [Example 68, 4-Benzyl-N-(3-methoxy-4-(4-methyl-1H-imidazol-1-yl)phenyl)-6-methyl-5,6,7,8-tetrahydropyrido[4,3-d]pyrimidin-2-amine], the IC50 is 20 nM.
The result for `Cc1nccn1-c1ccc(Nc2nc3c(c(NC4CCCCC4)n2)CN(C)CC3)cc1` [Example 69, N4-Cyclohexyl-6-methyl-N2-(4-(2-methyl-1H-imidazol-1-yl)phenyl)-5,6,7,8-tetrahydropyrido[4,3-d]pyrimidine-2,4-diamine] reads 398 nM; that for `Cc1nccn1-c1ccc(N(C)c2nc3c(c(N4c5ccccc5C[C@H]4CO)n2)CN(C)CC3)cc1` [Example 72], 631 nM.
Regarding `Cc1nccn1-c1ccc(Nc2nc3c(c(NC[C@@H]4CCCO4)n2)CN(C)CC3)cc1` [Example 73, (S)-6-Methyl-N2-(4-(2-methyl-1H-imidazol-1-yl)phenyl)-N4-((tetrahydrofuran-2-yl)methyl)-5,6,7,8-tetrahydropyrido[4,3-d]pyrimidine-2,4-diamine], the IC50 is 794 nM.
With `Cc1nccn1-c1ccc(Nc2nc3c(c(NC[C@H]4CCCO4)n2)CN(C)CC3)cc1` [Example 74, (R)-6-Methyl-N2-(4-(2-methyl-1H-imidazol-1-yl)phenyl)-N4-((tetrahydrofuran-2-yl)methyl)-5,6,7,8-tetrahydropyrido[4,3-d]pyrimidine-2,4-diamine], the IC50 is 1000 nM.
The result for `COc1cc(Nc2nc3c(c(Cc4ccccc4)n2)CN(CCO)CC3)ccc1-n1cnc(C)c1` [Example 75, 2-(4-Benzyl-2-(3-methoxy-4-(4-methyl-1H-imidazol-1-yl)phenylamino)-7,8-dihydropyrido[4,3-d]pyrimidin-6(5H)-yl)ethanol] reads 25.1 nM.
Take `Cc1nccn1-c1ccc(Nc2nc3c(c(N(CCO)Cc4ccccc4)n2)CN(C)CC3)cc1` [Example 76, 2-(Benzyl(6-methyl-2-(4-(2-methyl-1H-imidazol-1-yl)phenylamino)-5,6,7,8-tetrahydropyrido[4,3-d]pyrimidin-4-yl)amino)ethanol]: the IC50 is 501 nM.
The result for `CCN(CC1CCCO1)c1nc(Nc2ccc(-n3ccnc3C)cc2)nc2c1CN(CCO)CC2` (stereo not shown) [Example 77, 2-(4-(Ethyl((tetrahydrofuran-2-yl)methyl)amino)-2-(4-(2-methyl-1H-imidazol-1-yl)phenylamino)-7,8-dihydropyrido[4,3-d]pyrimidin-6(5H)-yl)ethanol] reads 631 nM; that for `Cc1nccn1-c1ccc(Nc2nc3c(c(N(CCC#N)C4CC4)n2)CN(C)CC3)cc1` [Example 78, 3-(Cyclopropyl(6-methyl-2-(4-(2-methyl-1H-imidazol-1-yl)phenylamino)-5,6,7,8-tetrahydropyrido[4,3-d]pyrimidin-4-yl)amino)propanenitrile], 1000 nM.
Consider `Cc1nccn1-c1ccc(Nc2nc3c(c(NCC4CCOCC4)n2)CN(C)CC3)cc1` [Example 79, 6-Methyl-N2-(4-(2-methyl-1H-imidazol-1-yl)phenyl)-N4-((tetrahydro-2H-pyran-4-yl)methyl)-5,6,7,8-tetrahydropyrido[4,3-d]pyrimidine-2,4-diamine], for which the IC50 was 1260 nM.
As to `OCCN1CCc2nc(Nc3ccc(-c4cnco4)cc3)nc(NC[C@H]3CCCO3)c2C1` [Example 80, (R)-2-(2-(4-(Oxazol-5-yl)phenylamino)-4-((tetrahydrofuran-2-yl)methylamino)-7,8-dihydropyrido[4,3-d]pyrimidin-6(5H)-yl)ethanol], the IC50 was 158 nM.
For the compound `CCN(CC1CCCO1)c1nc(Nc2ccc(-c3cnco3)cc2)nc2c1CN(CCO)CC2` (stereo not shown) [Example 81, 2-(4-(Ethyl((tetrahydrofuran-2-yl)methyl)amino)-2-(4-(oxazol-5-yl)phenylamino)-7,8-dihydropyrido[4,3-d]pyrimidin-6(5H)-yl)ethanol], the IC50 was 251 nM.
